The values below come from PubChem BioAssay AID1596 (NINDS Approved Drug Screening Program, 2009).

Records with an inconclusive call do not appear.

The test system of the assay is PC12 polyQ huntingtin toxicity, LDH release. Description: protection from polyQ Htt cytotoxicity, dose response, PC12 cells, LDH release, LDH100 (AID 1596). A general note: LDH leaks from cells whose membrane has failed.
One may read the EC50 as the concentration that produces a half-maximal response. For the compound `CC(=O)Nc1ccc(S(=O)(=O)Nc2ccc([N+](=O)[O-])cc2)cc1`, the EC50 was 20 µM.
The value for `CNC(=O)Oc1ccc2c(c1)[C@]1(C)CCN(C)[C@@H]1N2C` was 100 µM; that for `O=C(O)c1cc2cc(Cc3cccnc3)ccc2o1` was 20 µM.
The value for `CN1CCc2c(c3ccccc3n2Cc2ccccc2)C1` was 30 µM; that for `CC(=O)Oc1ccc(Cl)c2cccnc12` was 8 µM.
For the compound `O=C(Nc1ccc([N+](=O)[O-])cc1Cl)c1cc(Cl)ccc1O`, the EC50 was 1 µM.
The value for `Oc1c(Cl)cc(Cl)c(Cl)c1Cc1c(O)c(Cl)cc(Cl)c1Cl` was 10 µM; that for `CN(C)c1ccc(C(=C2C=CC(=[N+](C)C)C=C2)c2ccc(N(C)C)cc2)cc1` was 0.2 µM.
The value for `CN[C@@H]1[C@H](OC2[C@H](O[C@H]3[C@H](O)[C@@H](O)[C@H](N=C(N)N)[C@@H](O)[C@@H]3N=C(N)N)O[C@@H](C)[C@]2(O)C=O)O[C@@H](CO)[C@H](O)[C@H]1O` (stereo partly specified) was 100 µM.
In the case of `CC(=O)c1c(O)c(C)c(O)c2c1OC1=CC(=O)C(C(C)=O)C(=O)C12C` (stereo unspecified) it was 60 µM; in that of `NC(=NCc1ccccc1)NC(=O)c1nc(Cl)c(N)nc1N`, 100 µM; in that of `CCOc1ccc2c(c1)C(C)=CC(C)(C)N2`, 8 µM.
On to `O=c1c2ccccc2[se]n1-c1ccccc1`, for which the EC50 is 6 µM.
With `CC(C)C(=O)Nc1ccc([N+](=O)[O-])c(C(F)(F)F)c1`, the EC50 was 4 µM.
For `COc1cc2ccc(=O)oc2cc1O`, the EC50 was 30 µM.
In the case of `C[C@H]1c2cccc(O)c2C(O)=C2C(=O)[C@]3(O)C(O)=C(C(N)=O)C(=O)[C@@H](N(C)C)[C@@H]3[C@@H](O)[C@@H]21` it was 60 µM.
Regarding `Nc1c2c(nc3ccccc13)CCCC2`, the EC50 was 60 µM.
Turning to `OCCN1CCN(CCCN2c3ccccc3Sc3ccc(Cl)cc32)CC1`, the EC50 was 100 µM.
In the case of `CO[C@@]12[C@@H]3NC3CN1C1=C(C(=O)C(N)=C(C)C1=O)[C@@H]2COC(N)=O` (stereo partly specified), the concentration for a half-maximal effect (EC50) is 2.5 µM.
Consider `CCCCCc1cc(O)c2c(c1)OC(C)(C)C1CC=C(C)CC21` (stereo unspecified), for which the concentration for a half-maximal effect (EC50) is 40 µM.
For `CCCCCc1cc(O)c2c(c1)OC(C)(C)c1ccc(C)cc1-2`, the EC50 was 40 µM.
Turning to `CN(C)CCOC(c1ccc(Cl)cc1)c1ccccn1` (stereo unspecified), the EC50 is 1.5 µM.
`CCCCC[C@H](CC(=O)NO)C(=O)N[C@H](C(=O)N1CCC[C@H]1CO)C(C)C`: the EC50 is 100 µM.
In the case of `CN(C)[C@@H]1C(=O)C(C(N)=O)=C(O)[C@@]2(O)C(=O)C3=C(O)c4c(O)cccc4[C@@](C)(O)[C@H]3[C@H](O)[C@@H]12` it was 100 µM.
The value for `CO/N=C(/C(=O)N[C@@H]1C(=O)N2C(C(=O)O)=C(COC(C)=O)CS[C@H]12)c1csc(N)n1` was 6 µM.
Turning to `CNc1ccc2oc(C[C@@H]3OC4(CC[C@@H]3C)O[C@H](C(C)C(=O)c3ccc[nH]3)[C@H](C)C[C@H]4C)nc2c1C(=O)O` (stereo partly specified), the EC50 is 0.8 µM.
Regarding `Nc1c(Br)cc(Br)cc1CNC1CCC(O)CC1` (stereo unspecified), the concentration for a half-maximal effect (EC50) was 100 µM.
The value for `CO[C@@H]1C[C@@H](C[C@H]2CC[C@H](C)[C@H]([C@@H](C)C(=O)O)O2)O[C@]2(O[C@](C)([C@H]3CC[C@@](C)(C4O[C@@H](C5O[C@@](O)(CO)[C@H](C)C[C@@H]5C)C[C@@H]4C)O3)C[C@H]2C)[C@@H]1C` (stereo partly specified) was 4 µM; that for `O=c1cc(-c2ccc(O)cc2)oc2cc(O)cc(O)c12` was 40 µM; that for `Oc1c(Cl)cc(Cl)cc1Sc1cc(Cl)cc(Cl)c1O` was 20 µM.
Consider `CC(NC(=O)C(NC(=O)OCc1ccccc1)C(C)C)C(=O)NC(CC(=O)O)C(=O)OC(F)F` (stereo unspecified), for which the EC50 was 20 µM.
In the case of `COc1ccc(-c2coc3cc(O)cc(O)c3c2=O)cc1`, the EC50 is 60 µM.
`OCC(S)CS` (stereo unspecified): the concentration giving a half-maximal response (EC50) was 10 µM.
As for `CN1CCc2cccc3c2C1Cc1ccc(O)c(O)c1-3` (stereo unspecified), the EC50 was 10 µM.
The value for `CC(C)=CCC1=C(O)c2ccccc2C(=O)C1=O` was 100 µM; that for `CCCCC(=O)OC1(C(=O)CO)C(C)CC2C3CCC4=CC(=O)C=CC4(C)[C@@]3(F)[C@@H](O)CC21C` (stereo partly specified) was 60 µM; that for `C[C@@]1(C(=O)O)CC[C@]2(C)CC[C@]3(C)C4=CC=C5C=C(O)C(=O)C=C5[C@]4(C)CC[C@@]3(C)[C@@H]2C1` was 0.5 µM.
For `O=C1C=CC(=C(c2ccc(O)cc2)c2ccc(O)cc2)C=C1`, the EC50 is 6 µM.
The value for `CC[C@H]1OC(=O)[C@H](C)[C@@H](O[C@H]2C[C@@](C)(OC)[C@@H](O)[C@H](C)O2)[C@H](C)[C@@H](O[C@@H]2O[C@H](C)C[C@H](N(C)C)[C@H]2O)[C@](C)(O)C[C@@H](C)CN(C)[C@H](C)[C@@H](O)[C@]1(C)O` was 100 µM; that for `CC(C)(C)c1ccc(C(O)CCCN2CCC(C(O)(c3ccccc3)c3ccccc3)CC2)cc1` (stereo unspecified) was 8 µM; that for `CC[C@@]1(O)C[C@H](OC2CC(N(C)C)C(OC3CC(O)C(OC4CCC(=O)C(C)O4)C(C)O3)C(C)O2)c2c(cc3c(c2O)C(=O)c2c(O)cccc2C3=O)[C@H]1C(=O)OC` (stereo partly specified) was 4 µM.
Regarding `C=C[C@H]1CN2CC[C@H]1C[C@@H]2[C@H](O)c1ccnc2ccccc12`, the EC50 is 60 µM.
On to `CC(Cc1ccc(O)c(O)c1)C(C)Cc1ccc(O)c(O)c1` (stereo unspecified), for which the EC50 was 8 µM.
Regarding `CC1(C)O[C@@H]2CC3C4C[C@H](F)C5=CC(=O)C=CC5(C)C4C(O)CC3(C)[C@]2(C(=O)CO)O1` (stereo partly specified), the EC50 was 100 µM.
The value for `Cc1ccc(C(=O)C(C)CN2CCCCC2)cc1` (stereo unspecified) was 6 µM; that for `O=c1[nH]c2ccccc2n1C1CCN(CCCC(c2ccc(F)cc2)c2ccc(F)cc2)CC1` was 30 µM; that for `CCN(CC)CCNc1ccc(CO)c2sc3ccccc3c(=O)c12` was 4 µM.
In the case of `NC(=O)N/N=C/c1ccc([N+](=O)[O-])o1` it was 20 µM.
Take `CC[n+]1c(-c2ccccc2)c2cc(N)ccc2c2ccc(N)cc21`: the EC50 was 4 µM.
In the case of `O=C(c1ccccc1)c1ccc2n1CCC2C(=O)O` (stereo unspecified) it was 8 µM.
In the case of `CC(NCCC(c1ccccc1)c1ccccc1)c1ccccc1` (stereo unspecified) it was 10 µM; in that of `CCCCCCCCCCCCCCCCCC(=O)OC(CC(=O)O)C[N+](C)(C)C` (stereo unspecified), 100 µM.
Regarding `COc1ccc(C[C@H](N)C(=O)N[C@@H]2[C@@H](CO)OC(n3cnc4c(N(C)C)ncnc43)[C@@H]2O)cc1` (stereo partly specified), the EC50 was 10 µM.
In the case of `CCCCCc1cc(O)c2c(c1)OC(C)(C)C1CCC(C)=CC21` (stereo unspecified) it was 60 µM; in that of `CC(C)=CCCC1(C)C=Cc2c(O)c3c(c(CC=C(C)C)c2O1)OC12C(=CC4CC1C(C)(C)OC2(C/C=C(/C)C(=O)O)C4=O)C3=O` (stereo unspecified), 0.3 µM; in that of `CC(C)CC1C(=O)N2CCC[C@H]2C2(O)O[C@](NC(=O)C3C=C4c5cccc6[nH]c(Br)c(c56)C[C@H]4N(C)C3)(C(C)C)C(=O)N12` (stereo partly specified), 30 µM.
In the case of `NCCCCNCCCN`, the EC50 is 8 µM.
As to `COC12CC[C@@]3(C[C@@H]1C(C)(O)C(C)(C)C)[C@H]1Cc4ccc(O)c5c4[C@@]3(CCN1CC1CC1)[C@H]2O5` (stereo partly specified), the EC50 was 100 µM.
In the case of `C[N+](C)(C)CCOC(N)=O`, the concentration for a half-maximal effect (EC50) was 1 µM.
In the case of `CC(=O)OCC(=O)[C@@]1(O)[C@H](C)CC2C3CCC4=CC(=O)C=C[C@]4(C)[C@@]3(F)[C@@H](O)C[C@@]21C` (stereo partly specified), the EC50 is 0.8 µM.
Regarding `O=C1C=C2C(=CCOC2O)O1` (stereo unspecified), the EC50 is 1 µM.
In the case of `Oc1cccc2cccnc12` it was 20 µM; in that of `C=C1C(=O)OC2C1CCC1(C)CCC=C(C)C21` (stereo unspecified), 4 µM; in that of `Cc1cc(C2CCCCC2)n(O)c(=O)c1`, 2.5 µM.
The value for `O=NN(CCCl)C(=O)NCCCl` was 4 µM; that for `C[C@@H]1C[C@@H]([C@H](O)CC2CC(=O)NC(=O)C2)C(=O)[C@@H](C)C1` was 0.2 µM.
